Values of other authors as cited in patent publication US5298499A, “S-2-(substituted ethylamino)ethyl phosphorothioates” (Research Triangle Institute, priority 1991, dated 1994).
Where two headings read alike, the source gives them in different places.

How the values were obtained:
[1] = background statement

SMILES | radioprotective activity (literature) | uptake in malignant and healthy tissue [1] | radioprotective activity (in vivo)
NCCCNCCS [Compound 2] | known to be a radioprotective agent |  | 
NC(=O)CCNCCS [Compound 3, 2-(2.varies.-carbamidoethylamino)ethanethiol] | good radioprotective activity, comparable to that of compound 2 |  | 
NCCCNCCSP(=O)(O)O [WR2721, S-2-[3-aminopropylamino]ethylphosphorothioicacid] |  | comparable uptake | most effective agent
